Measured values taken from ChEMBL document CHEMBL1147766, “Structure-based design of novel groups for use in the P1 position of thrombin inhibitor scaffolds. Part 1: Weakly basic azoles” (Bioorg Med Chem Lett, 2006).

Legend:
[1] = target: T1, Prothrombin (Homo sapiens, UniProt P00734); test: Binding affinity to thrombin
[2] = target: Trypsin (Homo sapiens, UniProt P07477+P07478+P35030); test: Binding affinity to trypsin; format: protein assay
[3] = Half life in dog administered with 4 mg/kg, po; format: ADME, organism-based, Canis lupus familiaris; parameters: dose 4 mg/kg, route oral; conditions: in vivo
[4] = Cmax in dog administered with 4 mg/kg, po; format: ADME, organism-based, Canis lupus familiaris; parameters: dose 4 mg/kg, route oral; conditions: in vivo
[5] = Cmax in dog administered with 5 mg/kg, po; format: ADME, organism-based, Canis lupus familiaris; parameters: dose 5 mg/kg, route oral; conditions: in vivo
[6] = target: T1, Prothrombin; conditions: Plasma
Description: Anticoagulant potency in human plasma

SMILES	Ki [1]	Ki [2]	also measured
N[C@@H](C(=O)N1CCC[C@H]1C(=O)NCCCc1c[nH]cn1)C(c1ccccc1)c1ccccc1	0.017 µM	0.24 µM	
Cc1cnc(NCCc2ccccc2)c(=O)n1CC(=O)NC[C@H]1CC[C@H](N)CC1	0.0064 µM		
Cc1nc[nH]c1CNC(=O)Cn1c(C)ccc(NS(=O)(=O)Cc2ccccc2)c1=O	0.008 µM	43 µM	
Nc1ncc(/C=C/CNC(=O)[C@@H]2CCCN2C(=O)[C@H](N)C(c2ccccc2)c2ccccc2)s1	0.03 µM	178 µM	
Cc1nc(N)sc1CNC(=O)Cn1c(C)ccc(NS(=O)(=O)Cc2ccccc2)c1=O	0.01 µM	6.5 µM	
Cc1[nH]cnc1/C=C/CNC(=O)[C@@H]1CCCN1C(=O)[C@H](N)C(c1ccccc1)c1ccccc1	0.001 µM	0.1 µM	Cmax [5]: 550 nM; 2aPTT [6]: 0.32 µM
N[C@@H](C(=O)N1CCC[C@H]1C(=O)NC/C=C/c1c[nH]cn1)C(c1ccccc1)c1ccccc1	0.002 µM	0.14 µM	
Cc1nc[nH]c1CNC(=O)Cn1c(C)cnc(NCCc2ccccn2)c1=O	0.022 µM		
Nc1ncc(CNC(=O)[C@@H]2CCCN2C(=O)[C@H](N)C(c2ccccc2)c2ccccc2)s1	0.35 µM	59 µM	
Cc1[nH]cnc1C#CCNC(=O)[C@@H]1CCCN1C(=O)[C@H](N)C(c1ccccc1)c1ccccc1	0.006 µM	7.2 µM	
N[C@@H](C(=O)N1CCC[C@H]1C(=O)NCC#Cc1c[nH]cn1)C(c1ccccc1)c1ccccc1	0.013 µM	6 µM	
Nc1ncc(CCCNC(=O)[C@@H]2CCCN2C(=O)[C@H](N)C(c2ccccc2)c2ccccc2)s1	0.198 µM	32 µM	
Nc1ncc(CCNC(=O)[C@@H]2CCCN2C(=O)[C@H](N)C(c2ccccc2)c2ccccc2)s1	0.193 µM	59 µM	
Cc1[nH]cnc1CNC(=O)[C@@H]1CCCN1C(=O)[C@H](N)C(c1ccccc1)c1ccccc1	0.065 µM	9.6 µM	

Further lines, with some results ahead:

Ki [1]	Ki [2]	SMILES	also measured
0.143 µM	21 µM	Cc1ccc(NS(=O)(=O)Cc2ccccc2)c(=O)n1CC(=O)NC/C=C/c1c[nH]cn1	
1.8 µM	> 1000 µM	Cc1ccc(NS(=O)(=O)Cc2ccccc2)c(=O)n1CC(=O)NC/C=C/c1cnc(N)s1	
0.2 µM	2.3 µM	N[C@@H](C(=O)N1CCC[C@H]1C(=O)NCCc1c[nH]cn1)C(c1ccccc1)c1ccccc1	
0.053 µM		Cc1nc[nH]c1CNC(=O)Cn1c(C)cnc(NCCc2ccccc2)c1=O	half-life [3]: 2 h; Cmax [4]: 1400 nM
0.38 µM	36 µM	N[C@@H](C(=O)N1CCC[C@H]1C(=O)NCc1c[nH]cn1)C(c1ccccc1)c1ccccc1	
0.17 µM	314 µM	Cc1ccc(NS(=O)(=O)Cc2ccccc2)c(=O)n1CC(=O)NCc1c[nH]cn1	
0.034 µM	17 µM	Cc1ccc(NS(=O)(=O)Cc2ccccc2)c(=O)n1CC(=O)NCCCc1c[nH]cn1	
	> 1000 µM	Cc1ccc(NS(=O)(=O)Cc2ccccc2)c(=O)n1CC(=O)NCc1cnc(N)s1	
0.45 µM	124 µM	Cc1ccc(NS(=O)(=O)Cc2ccccc2)c(=O)n1CC(=O)NCCCc1cnc(N)s1	
